In experiment [1] the target is T1, PPAR-α (Homo sapiens, UniProt Q07869).
T1 sequence (Q07869 1-468): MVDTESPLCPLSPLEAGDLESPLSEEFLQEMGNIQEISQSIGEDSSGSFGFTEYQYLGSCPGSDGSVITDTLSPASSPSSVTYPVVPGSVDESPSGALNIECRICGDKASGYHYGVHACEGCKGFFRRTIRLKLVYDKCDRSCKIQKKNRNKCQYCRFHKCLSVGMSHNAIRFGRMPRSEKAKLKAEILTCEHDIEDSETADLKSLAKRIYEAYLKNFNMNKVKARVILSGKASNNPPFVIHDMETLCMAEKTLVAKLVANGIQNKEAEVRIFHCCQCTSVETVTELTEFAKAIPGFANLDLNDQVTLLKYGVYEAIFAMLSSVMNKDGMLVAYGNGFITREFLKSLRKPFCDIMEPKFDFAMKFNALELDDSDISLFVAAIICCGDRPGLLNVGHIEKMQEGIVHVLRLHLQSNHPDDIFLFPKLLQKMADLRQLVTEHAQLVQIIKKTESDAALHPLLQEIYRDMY
The experiment in a line: Scintillation Proximity Assay (SPA), displacement of 3H labeled GW2331. Format: binding. The note with it: 3H GW2331 displacement, read-out: PPAR-alpha Ki.

Experiment [2] addresses T2, PPAR-γ (Homo sapiens, UniProt P37231).
T2 sequence (P37231 1-505): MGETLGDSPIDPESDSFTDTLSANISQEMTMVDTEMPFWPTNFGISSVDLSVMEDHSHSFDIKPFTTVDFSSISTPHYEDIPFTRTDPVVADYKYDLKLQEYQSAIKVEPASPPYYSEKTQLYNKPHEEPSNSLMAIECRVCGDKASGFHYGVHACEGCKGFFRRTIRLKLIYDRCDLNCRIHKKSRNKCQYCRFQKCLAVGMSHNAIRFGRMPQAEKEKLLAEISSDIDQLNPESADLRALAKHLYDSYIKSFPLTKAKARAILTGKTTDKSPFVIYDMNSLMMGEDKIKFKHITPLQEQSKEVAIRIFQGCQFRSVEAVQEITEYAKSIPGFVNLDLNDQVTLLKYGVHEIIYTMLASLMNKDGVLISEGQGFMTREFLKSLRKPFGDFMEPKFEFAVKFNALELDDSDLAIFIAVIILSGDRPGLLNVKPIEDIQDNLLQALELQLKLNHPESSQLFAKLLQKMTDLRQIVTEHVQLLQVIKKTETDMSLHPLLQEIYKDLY
Kind of experiment: Scintillation Proximity Assay (SPA), displacement of 3H labeled darglitazone. Format: binding. The note with it: 3H darglitazone displacement, read-out: PPAR-gamma Ki.

This passage reports Ki results from patent US20050234066A1, “Alpha substituted carboxylic acids” (Agouron Pharmaceuticals, Inc., priority 2004, published 2005).

For the compound `CC(C)(Oc1cccc(-c2cccc(OCc3ccc(C(F)(F)F)cc3)c2)c1)C(=O)O` [Example A-02, 2-Methyl-2-[(3′-{[4-(trifluoromethyl)benzyl]oxy}1,1′-biphenyl-3-yl)oxy]propanoic acid], in experiment [1], the Ki worked out at 550 nM.

For `Cc1ccc(N2CCC(CCOc3cccc(-c4cccc(OC(C)(C)C(=O)O)c4)c3)CC2)nn1` [Example A-03, 2-Methyl-2-[(3′-{2-[1-(6-methylpyridazin-3-yl)piperidin-4-yl]ethoxy}1,1′-biphenyl-3-yl)oxy]propanoic acid], the Ki amounted to 19000 nM in experiment [1] and 10000 nM in experiment [2].

On to `Cc1oc(-c2ccccc2)nc1CCOc1cccc(-c2cccc(OC3(C(=O)O)CCC3)c2)n1` [Example A-07], for which the inhibition constant Ki in experiment [1] was determined as 120 nM.

Take `Cc1oc(-c2ccccc2)nc1CCOc1ccc(-c2cccc(OC3(C(=O)O)CCC3)c2)cc1` [Example A-10]: the inhibition constant (Ki) in experiment [1] was found to be 4400 nM; in experiment [2] it was 1500 nM.

As for `Cc1oc(-c2cccc(F)c2)nc1COc1cccc(-c2cccc(OC3(C(=O)O)CCC3)c2)c1` [Example A-11], the Ki turned out to be 120 nM in experiment [1] and 580 nM in experiment [2].

In the case of `Cc1oc(-c2ccccc2)nc1CCCOc1cccc(-c2cccc(OC3(C(=O)O)CCC3)c2)c1` [Example A-12], the Ki in experiment [1] worked out at 350 nM; in experiment [2] it was 51 nM.

For the compound `Cc1oc(-c2ccccc2)nc1CCCOc1cccc(-c2cccc(OC(C)(C)C(=O)O)n2)c1` [Example A-13], the inhibition constant (Ki) is 10000 nM in experiment [1] and 3500 nM in experiment [2].

For `O=C(O)C1(Oc2cccc(-c3cccc(OCc4cc(-c5ccccc5)no4)c3)c2)CCC1` [Example A-14], the inhibition constant Ki was 150 nM in experiment [1] and 1300 nM in experiment [2].

Consider `COc1ccc(-c2nc(COc3cccc(-c4cccc(OC5(C(=O)O)CCC5)c4)c3)no2)cc1` [Example A-17], for which the inhibition constant Ki in experiment [1] turned out to be 1600 nM; in experiment [2] it was 1900 nM.

In the case of `Cc1nn(-c2ccccc2)nc1COc1cccc(-c2cccc(OC3(C(=O)O)CCC3)c2)c1` [Example A-18], the Ki in experiment [1] amounted to 14000 nM; in experiment [2], 1700 nM.

Turning to `Cn1nc(-c2ccccc2)nc1COc1cccc(-c2cccc(OC3(C(=O)O)CCC3)c2)c1` [Example A-19], the Ki was determined as 700 nM in experiment [1] and 59 nM in experiment [2].

As for `Cc1onc(-c2ccccc2)c1COc1cccc(-c2cccc(OC3(C(=O)O)CCC3)c2)c1` [Example A-20], the Ki in experiment [1] was 140 nM; in experiment [2] it was 180 nM.

As to `Cc1oc(-c2cccc(F)c2)nc1CCOc1cccc(-c2cccc(OC(C)(C)C(=O)O)c2)c1` [Example A-21], the inhibition constant Ki in experiment [1] was 310 nM; in experiment [2], 88 nM.

For the compound `Cc1oc(-c2cc(F)cc(F)c2)nc1CCOc1cccc(-c2cccc(OC(C)(C)C(=O)O)c2)c1` [Example A-22], the results for the inhibitory constant (Ki) in experiment [1] and in experiment [2] were 850 nM and 170 nM, respectively.

For `Cc1oc(-c2ccccc2)nc1CCCOc1cccc(-c2cccc(OC(C)(C)C(=O)O)c2)c1` [Example A-23], the figures for the Ki in experiment [1] and in experiment [2] were 180 nM and 390 nM, respectively.

Consider `Cc1oc(-c2ccccc2)nc1COc1cccc(-c2cccc(OC(C)(C)C(=O)O)c2)c1` [Example A-24], for which the Ki in experiment [1] was determined as 18 nM; in experiment [2], 780 nM.

Turning to `Cn1nc(-c2ccccc2)nc1CCOc1cccc(-c2cccc(OC(C)(C)C(=O)O)c2)c1` [Example A-25], the Ki was 4200 nM in experiment [1] and 3200 nM in experiment [2].

As for `Cc1nn(-c2ccccc2)nc1CCOc1cccc(-c2cccc(OC(C)(C)C(=O)O)c2)c1` [Example A-26], the Ki turned out to be 330 nM in experiment [1] and 150 nM in experiment [2].

Consider `CC(C)(Oc1cccc(-c2cccc(OCCCOCc3ccccc3)c2)c1)C(=O)O` [Example A-27], for which the Ki in experiment [1] is 1300 nM; in experiment [2], 2400 nM.

On to `CCC(Oc1cccc(CNC(=O)OCCc2cccc(C(F)(F)F)c2)c1)C(=O)O` (stereo not drawn) [Example B-02], for which the inhibitory constant (Ki) in experiment [1] was found to be 2200 nM.

In the case of `CCC(Oc1cccc(CNC(=O)OCCc2nc(-c3ccccc3)oc2C)c1)C(=O)O` (stereo not drawn) [Example B-13], the inhibition constant Ki in experiment [1] amounted to 9000 nM.

For `CCC(Oc1cccc(CNC(=O)OCCCc2nc(-c3ccccc3)oc2C)c1)C(=O)O` (stereo not drawn) [Example B-18], in experiment [1], the Ki came to 82 nM.

On to `CC(C)(Oc1cccc(CNS(=O)(=O)c2ccc(Oc3ccccc3)cc2)c1)C(=O)O` [Example B-20], for which the Ki in experiment [1] was determined as 1600 nM.

As for `CCC(Oc1cccc(CNC(=O)OCc2ccc(-c3noc(C)n3)cc2)c1)C(=O)O` (stereo not drawn) [Example B-27], in experiment [1], the inhibition constant (Ki) came out at 220 nM.

Regarding `CC(Cc1ccccc1)OC(=O)NCc1cccc(OC(C)(C)C(=O)O)c1` (stereo not drawn) [Example B-28], the Ki in experiment [1] stood at 7800 nM.

In the case of `Cc1oc(-c2ccccc2)nc1CCOc1ccc(CC2(C(=O)O)CCCC2)cc1` [Example C-02], in experiment [1], the inhibition constant Ki was 390 nM.

With `Cc1oc(-c2ccccc2)nc1CCCOc1ccc(CC2(C(=O)O)CCCC2)cc1` [Example C-03], the Ki in experiment [1] came out at 2900 nM.

Consider `Cc1oc(-c2ccccc2)nc1CCOc1ccc(CC2(C(=O)O)CCOCC2)cc1` [Example C-05], for which the inhibition constant Ki in experiment [1] came out at 15000 nM.

With `O=C(O)C1(Cc2ccc(OCCCc3nc(-c4ccccc4)oc3-c3ccccc3)cc2)CCC1` [Example C-38], the Ki in experiment [2] stood at 7200 nM.

Take `Cc1oc(-c2ccccc2)nc1CCOc1ccc(C(O)C2(C(=O)O)CCC2)cn1` (stereo not drawn) [Example C-44]: in experiment [1], the Ki was determined as 36000 nM.

Regarding `Cc1oc(-c2ccccc2)nc1CCOc1ccc(CC2(C(=O)O)CCCCC2)cn1` [Example C-47], the Ki in experiment [1] was 8300 nM.

On to `Cc1oc(-c2ccccc2)nc1CCOc1ccc(CC2(C(=O)O)CCCO2)cn1` (stereo not drawn) [Example C-48, 2-({6-[2-(5-methyl-2-phenyl-1,3-oxazol-4-yl)ethoxy]pyridin-3-yl}methyl)tetrahydrofuran-2-carboxylic acid], for which the Ki in experiment [1] is 240 nM.

Take `Cc1oc(-c2ccccc2)nc1CCCOc1ccc(CC2(C(=O)O)CCCO2)nc1` (stereo not drawn) [Example C-55]: in experiment [2], the Ki was 6000 nM.

`Cc1oc(-c2ccccc2)nc1CCOc1ccc(CC2(C(=O)O)CCCCO2)cn1` (stereo not drawn) [Example C-56]: the inhibitory constant (Ki) in experiment [1] amounted to 78 nM.

For `Cc1oc(-c2cccc(Cl)c2)nc1CCOc1ccc(CC2(C(=O)O)CCCO2)cn1` (stereo not drawn) [Example C-59], the Ki in experiment [1] was found to be 54 nM.

Regarding `COc1ccc(-c2nc(CCOc3ccc(CC4(C(=O)O)CCCO4)cn3)c(C)o2)cc1` (stereo not drawn) [Example C-60], the inhibition constant Ki in experiment [1] was 65 nM.

Consider `Cc1oc(-c2ccc(C(F)(F)F)cc2)nc1CCOc1ccc(CC2(C(=O)O)CCCO2)cn1` (stereo not drawn) [Example C-63], for which the inhibition constant Ki in experiment [1] came out at 21 nM.

For the compound `Cc1oc(-c2ccc(Cl)cc2)nc1CCOc1ccc(CC2(C(=O)O)CCCO2)cn1` (stereo not drawn) [Example C-64], the Ki in experiment [1] was 14 nM.

As for `Cc1ccc(-c2nc(CCOc3ccc(CC4(C(=O)O)CCCO4)cn3)c(C)o2)cc1` (stereo not drawn) [Example C-66], the Ki in experiment [1] came out at 31 nM.

Consider `Cc1nc(CCOc2ccc(CC3(C(=O)O)CCCO3)cn2)c(C)s1` (stereo not drawn) [Example C-68], for which the inhibition constant (Ki) in experiment [2] worked out at 4200 nM.

As for `Cc1ccccc1CCOc1ccc(CC2(C(=O)O)CCCO2)cn1` (stereo not drawn) [Example C-70], in experiment [1], the Ki is 6400 nM.

As for `Cc1ccc(CCOc2ccc(CC3(C(=O)O)CCCO3)cn2)cc1` (stereo not drawn) [Example C-71], the inhibitory constant (Ki) in experiment [1] is 9700 nM.

As to `CS(=O)(=O)Oc1ccc(CCOc2ccc(CC3(C(=O)O)CCCO3)cn2)cc1` (stereo not drawn) [Example C-72], the inhibition constant Ki in experiment [1] was 7100 nM.

For `CC(C)(C)OC(=O)Nc1ccc(CCOc2ccc(CC3(C(=O)O)CCCO3)cn2)cc1` (stereo not drawn) [Example C-73], the Ki in experiment [2] came out at 42 nM.

Regarding `Cc1oc(-c2ccccc2)nc1CCCCc1ccc(CC2(C(=O)O)CCCO2)cn1` (stereo not drawn) [Example C-75], the inhibitory constant (Ki) in experiment [2] was found to be 820 nM.

For the compound `Cc1oc(-c2ccc(C(F)(F)F)c(F)c2)nc1CCOc1ccc(CC2(C(=O)O)CCCO2)cc1` (stereo not drawn) [Example C-82], the Ki in experiment [2] is 16 nM.

For `COC(Cc1ccc(OCCc2ccc(OS(C)(=O)=O)cc2)nc1)C(=O)O` [Example D-12], the inhibition constant Ki in experiment [2] turned out to be 8100 nM.

As to `CCOC(Cc1ccc(OCCc2ccc(OCCOC)cc2)nc1)C(=O)O` [Example D-16], the Ki in experiment [2] came to 6400 nM.

For the compound `CCOC(Cc1ccc(OCCCc2nc(-c3ccccc3)oc2C)cn1)C(=O)O` [Example D-24], in experiment [1], the Ki was determined as 930 nM.

As to `CCOC(Cc1ccc(OCCc2nc(C)sc2C)cn1)C(=O)O` [Example D-25], in experiment [2], the inhibition constant Ki was found to be 2900 nM.

Take `COC(C)(Cc1ccc(OCCCc2nc(-c3ccccc3)oc2C)nc1)C(=O)O` [Example D-27]: the inhibition constant (Ki) in experiment [2] amounted to 7800 nM.

As to `COC(C)(Cc1ccc(OCCc2nc(-c3ccccc3)oc2C)nc1)C(=O)O` [Example D-35], in experiment [1], the Ki amounted to 330 nM.

Turning to `COC(C)(Cc1ccc(OCCc2nc(C(C)C)oc2C)nc1)C(=O)O` [Example D-38], the inhibitory constant (Ki) in experiment [2] was 9600 nM.

On to `COC(C)(Cc1ccc(OCCc2nc(-c3cc(C)nn3C)oc2C)nc1)C(=O)O` [Example D-39], for which, in experiment [2], the Ki came out at 5000 nM.

On to `COC(C)(Cc1ccc(OCCc2ccc(OC(F)(F)F)cc2)nc1)C(=O)O` [Example D-41], for which the inhibition constant (Ki) in experiment [1] was 5900 nM.

The term Ki denotes the dissociation constant of the complex between target and ligand, obtained from inhibition or displacement.
